These results are taken from US20220288201A1, “COMBINATION THERAPY FOR TREATING RAS-MUTANT CANCERS” (H. Lee Moffitt Cancer and Research Institute, Inc., priority 2019, published 2022).

Structures are written as SMILES. pIC50: −log10 of the molar value. Read-outs that look alike come from different tables or passages of the source.

For one data set, the system named is A375. As to the kind of experiment: Colony growth assay, A375 (BRAF mutant positive control). It is filed as cell-based. To be noted: Homo sapiens, A-375. From the text: (§1) FIG. 1. […] All other lines are BRAF wild-type and have activating mutations in RAS.
(§2) While oncogene-induced senescence due to overexpressed mutant RAS is an important tumor suppression mechanism, multiple variants of senescence exist (Ito, Y., et al. Trends Cell Biol 27:820-832 (2017); Lasry, A. & Ben-Neriah, Y. Trends Immunol 36:217-28 (2015); Ewald, J. A., et al. J Natl Cancer Inst 102:1536-46 (2010); Mooi, W. J. & Peeper, D.S. N Engl J Med. 355:1037-46 (2006)). With this in mind, experiments were conducted to determine whether paradoxical ERK activation, as driven by BRAFi exposure in the context of RAS-mutant cancers, could cause elevation of ERK pathway signaling to the point of causing senescence-like growth arrest akin to oncogene-induced senescence. To determine the effects of BRAFi treatment on RAS-mutant melanomas, a panel of four BRAFi were screened against eight RAS-mutant melanoma cell lines. the FDA-approved BRAFi vemurafenib, dabrafenib, encorafenib (Dummer, R., et al. J Clin Oncol 31(2013)), and the ‘paradox-breaker PLX8394, which was designed to elicit no paradoxical ERK activation (Zhang, C., et al. Nature 526:583-6 (2015)) were tested.

The next data set relates to 501mel. The data set is described as follows: Colony growth assay, 501mel. Type of data set: cell-based. To be noted: Homo sapiens, RAS G12D.
Description: as §1, §2

The conditions of data set [1]: cited from earlier work; for induction of cutaneous squamous cell carcinoma (cuSCC), patients: treated patients, averaged across multiple studies.
The test system of another data set is Sk-mel-2. The data set is described as follows: Colony growth assay, Sk-mel-2. It is filed as cell-based. To be noted: Homo sapiens, Sk-mel-2, RAS Q61R.
Description: as §1, §2

Another data set has as its system ICP 298. As to the kind of experiment: Colony growth assay, ICP 298. It is filed as cell-based. To be noted: Homo sapiens, ICP 298, RAS Q61L.
Description: as §1, §2

In the next data set the test system is Sk-mel-119. As to the kind of experiment: Colony growth assay, Sk-mel-119. It is filed as cell-based. Conditions: Homo sapiens, Sk-mel-119, RAS Q61R.
Description: as §1, §2

The test system of a further data set is CP66. The data set is described as follows: Colony growth assay, CP66. Type of data set: cell-based. To be noted: Homo sapiens, CP66, RAS Q61K.
Description: as §1, §2

Another data set has as its system GAK. The data set is described as follows: Colony growth assay, GAK. It is filed as cell-based. Conditions: Homo sapiens.
Description: as §1, §2

Another data set concerns MelJUSO. The data set is described as follows: Colony growth assay, MelJUSO. Type of data set: cell-based. Conditions: Homo sapiens, MEL-JUSO, RAS Q61L (HRASG13D).
Description: as §1, §2

The next data set relates to WM1366. As to the kind of experiment: Colony growth assay, WM1366. Type of data set: cell-based. To be noted: Homo sapiens, WM1366, RAS Q61L.
Description: as §1, §2

In data set [2] the test system is RAS-mutant melanoma cell lines. As to the kind of experiment: BRAFi screen against panel of RAS-mutant melanoma cell lines. It is filed as cell-based, human. To be noted: for pIC50: Homo sapiens, four 'BRAFi sensitive' RAS-mutant cell lines, read-out: IC50, growth inhibition.
Description: as §1, §2

For data set [3] the following is noted: in vivo; cited from earlier work.
In data set [4] the test system is NRASQ61R-mutant melanoma cells (C57BL/6). The data set is described as follows: Transplanted NRASQ61R-mutant melanoma model in C57BL/6 mice. It is filed as in vivo, mouse. Conditions: dabrafenib 3.5 mg/kg/day, RMP1-14 thrice weekly, start day 7. The method, then:
FIG. 11. Transplanted NRASQ61R-mutant melanoma cells (C57BL/6) regress when dabrafenib-induced PEASA is combined with anti-PD1 immunotherapy. 1 million melanoma cells were injected in both flanks of C57BL/6 mice and therapy started at 7 days. […] mice per condition across 2 independent trials; mean tumor volume +/−SEM.
Because senescence is associated with a specific inflammatory gene expression signature, RNAseq was used to characterize responsive NRAS-mutant cell lines (IPC298, SK-MEL-119) following BRAFi exposure.

Data set [5] has as its system IL-6 secretion, 501 MEL melanoma cell lines. As to the kind of experiment: IL-6 secreted in the media of 501 MEL cells. It is filed as cell-based, human. Conditions: acute 24 hours or chronic 7 days, vs control-treated. From the text:
Substantial increases in the secretion of this canonical senescence-associated cytokine are reliably measured in all settings, up to 3-fold in magnitude, showing essential features of the ERK-hyperactivation mediated senescence response.

The subject of data set [6] is IPC 298 and 501mel cell line xenografts. As to the kind of experiment: IPC 298 and 501mel cell line xenografts in mice. Type of data set: in vivo, mouse. To be noted: 3.5 mg/kg daily; NOD/SCID gamma or athymic nude mice. The method, then: FIG. 4. […] (A) IPC 298 cell line xenografts were established in NOD/SCID gamma mice by co-injecting 1 million IPC 298 cells subcutaneously. Daily treatment with vehicle (n=20) or 3.5 mg/kg dabrafenib (n=20) was initiated at ‘Day 0,’ or 7 days post injection. Tumor volume was tracked by caliper measurement, calculated using V=½lw2. Student's t-test compares differences in tumor volumes at sacrifice in both conditions versus vehicle control (B) Representative image of mice from (A) at experimental endpoint. (C) Phospho-ERK western-blotting of tumor lysates from a short-term pharmacodynamic experiment from IPC 298 lysates harvested from mice treated orally with vehicle or 3.5 mg/kg dabrafenib for 5 days. (D) 501mel cell line xenografts were established in athymic nude mice by co-injecting 4 million 501mel cells mixed with 1 million normal dermal fibroblasts (NDF) per site. Mice were treated with vehicle (n=11) or 3.5 mg/kg dabrafenib (n=10), 12 days post injection. As engraftment with 501mel/NDF is inefficient, only tumors with diameters >3 mm at treatment initiation are detailed here. Student's t-test compares differences in tumor volumes at sacrifice in both conditions versus vehicle control. (E) Representative image of mice from (D) at experimental endpoint. […] Quantitative data represent at least three independent experiments. […]

[7] abbreviates: A375, RAS WT (BRAFV600E), colony growth, read-out: IC50.
[8] abbreviates: GAK, RAS Q61K, colony growth, read-out: IC50.

With `CCCS(=O)(=O)Nc1ccc(F)c(C(=O)c2c[nH]c3ncc(-c4ccc(Cl)cc4)cc23)c1F` [Vemurafenib], the negative logarithm of the IC50 (pIC50) – broadly, the negative decadic logarithm of the IC50, by convention in mol/L – with A375 (setting [7]) was 7.17; with 501mel, 5.52; with Sk-mel-2, 5.60; in the data set on ICP 298 it was 6.42; with Sk-mel-119, 6.27; in the data set on CP66, under 5.18. Besides, the pIC50 with GAK was 5.28; in the data set with MelJUSO, under 5.18; in the data set with WM1366, under 5.18. In addition, the “cuSCC harboring activating RAS mutations” value in [1] (cuSCC from treated patients, 10-20% in sporadic cuSCC) is given as “Approximately 60%”. Besides, the “induction of cutaneous squamous cell carcinoma (cuSCC), patients” value in data set [1] is recorded as 22%.
On to `COC(=O)N[C@@H](C)CNc1nccc(-c2cn(C(C)C)nc2-c2cc(Cl)cc(NS(C)(=O)=O)c2F)n1` [Encorafenib], for which the pIC50 in the data set with A375 (setting [7]) was 9.15; in the data set on 501mel, 8.12; in the data set on Sk-mel-2, 6.26; in the data set with ICP 298, 9.05; in data set [2], over 7.00; with Sk-mel-119, 9.31. Further, the pIC50 was 6.28 in the data set on CP66, 5.80 in the data set with GAK (setting [8]), 7.59 with MelJUSO and under 5.70 in the data set on WM1366. Further, the plasma elimination half-life result in data set [3] is recorded as “approximately 6 hours”.
Turning to `CC(C)(C)c1nc(-c2cccc(NS(=O)(=O)c3c(F)cccc3F)c2F)c(-c2ccnc(N)n2)s1` [Dabrafenib], the negative-log IC50 (pIC50) in the data set on A375 is 8.60; in the data set with 501mel, 7.68; with Sk-mel-2, 6.62; in the data set with ICP 298, 7.51; in data set [2] it was over 7.00; with Sk-mel-119, 8.74. Besides, the pIC50 is 6.00 with CP66, 6.15 in the data set with GAK (setting [8]), 7.00 in the data set with MelJUSO and under 5.30 in the data set on WM1366. Further, in data set [4], the “tumor response (tumor volume)” value was “partial responses, but progressive disease”. Also, in data set [1], the “induction of cutaneous squamous cell carcinoma (cuSCC), patients” value is 6%. For the same compound, the “increase in secretion of IL-6” value in [5] is listed as “up to 3 fold”. The “tumor growth in vivo” value in [6] is recorded as “prevents RAS-mutant tumor growth”.
Turning to `O=C(c1c(F)ccc(NS(=O)(=O)N2CC[C@@H](F)C2)c1F)c1c[nH]c2ncc(-c3cnc(C4CC4)nc3)cc12` [PLX8394], the pIC50 was 6.74 in the data set with A375 (setting [7]); under 6.00 in the data set with 501mel; under 6.00 with Sk-mel-2; under 6.00 with ICP 298; under 6.00 in the data set with Sk-mel-119; under 6.00 with CP66. Further, the pIC50 in the data set with GAK (setting [8]), with MelJUSO and with WM1366 was under 6.00 throughout. Further, the “activity against RAS mutant cell lines” value in data set [2] (RAS mutant cell lines) is given as “never showed activity”.
